Experimental data from ChEMBL document CHEMBL1201862, “PubChem BioAssay data set” (2004).
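Protocol summary: plate cells (96-well), add compound at 5 concentrations, incubate 48 h, interpolate endpoints linearly. Abbreviation: GI50, concentration required for 50% inhibition of growth.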 Calls of active or inactive are those of the source. No stated cut-off is given here; in the data, active = GI50 up to about 1.1 µM and inactive = higher.

Experiments:
Assay in all cases: inhibition of tumour cell growth, NCI panel, 48 h
OVCAR-4 = test system: OVCAR-4
CAKI-1 = test system: CAKI-1
SK-MEL-2 = test system: SK-MEL-2
HT-29 = test system: HT-29
MCF7 = test system: MCF7
Malme-3M = test system: Malme-3M
U-251 = test system: U-251
HCT-116 = test system: HCT-116
OVCAR-3 = test system: OVCAR-3
A549 = test system: A549
MDA-MB-231 = test system: MDA-MB-231
COLO 205 = test system: COLO 205
UACC-62 = test system: UACC-62
SF-539 = test system: SF-539
DU-145 = test system: DU-145
MDA-MB-435 = test system: MDA-MB-435
PC-3 = test system: PC-3
KM12 = test system: KM12
SW-620 = test system: SW-620

| SMILES | GI50 (OVCAR-4) | GI50 (CAKI-1) | GI50 (SK-MEL-2) | GI50 (HT-29) | GI50 (MCF7) | GI50 (Malme-3M) | GI50 (U-251) | GI50 (HCT-116) | GI50 (OVCAR-3) | GI50 (A549) | GI50 (MDA-MB-231) | GI50 (COLO 205) | GI50 (UACC-62) | GI50 (SF-539) | GI50 (DU-145) | GI50 (MDA-MB-435) | GI50 (PC-3) | GI50 (KM12) | GI50 (SW-620) |
| --- | --- | --- | --- | --- | --- | --- | --- | --- | --- | --- | --- | --- | --- | --- | --- | --- | --- | --- | --- |
| O=C(CCc1ccc(O)cc1)NCCc1ccc(O)cc1 | > 100 µM (inactive) | > 100 µM (inactive) | > 100 µM (inactive) | > 100 µM (inactive) | > 100 µM (inactive) | > 100 µM (inactive) | > 100 µM (inactive) | > 100 µM (inactive) | > 100 µM (inactive) | > 100 µM (inactive) | > 100 µM (inactive) | > 100 µM (inactive) | > 100 µM (inactive) | > 100 µM (inactive) | > 100 µM (inactive) | > 100 µM (inactive) | > 100 µM (inactive) | > 100 µM (inactive) | – |
| CCNc1ncnc2sc(SCc3ccccc3)nc12 | > 100 µM (inactive) | 71.6 µM (inactive) | > 100 µM (inactive) | 58.1 µM (inactive) | 79.6 µM (inactive) | > 100 µM (inactive) | > 100 µM (inactive) | 85.9 µM (inactive) | > 100 µM (inactive) | 36.5 µM (inactive) | > 100 µM (inactive) | 36.1 µM (inactive) | – | > 100 µM (inactive) | 75.7 µM (inactive) | > 100 µM (inactive) | 38.5 µM (inactive) | 48.4 µM (inactive) | > 100 µM (inactive) |
| CC(=O)Oc1c2c(c(CC=C(C)C)c3c1C(=O)C1=C[C@@H]4CC5C(C)(C)OC(C/C=C(/C)C(=O)O)(C4=O)[C@@]15O3)OC(C)(CCC=C(C)C)C=C2 (some centres not stated) | 0.177 µM (active) | 0.174 µM (active) | 0.305 µM (active) | 0.19 µM (active) | 0.173 µM (active) | 0.29 µM (active) | 0.0918 µM (active) | 0.149 µM (active) | 0.308 µM (active) | 0.188 µM (active) | 0.227 µM (active) | 0.195 µM (active) | 0.282 µM (active) | 0.0986 µM (active) | 0.287 µM (active) | 0.161 µM (active) | 0.244 µM (active) | 0.188 µM (active) | 0.091 µM (active) |
| CC(C)(C)[Si](C)(C)OC1/C(=C/C#N)C(n2ccc(=O)[nH]c2=O)OC1CO (configuration not stated) | > 100 µM (inactive) | > 100 µM (inactive) | > 100 µM (inactive) | > 100 µM (inactive) | > 100 µM (inactive) | > 100 µM (inactive) | > 100 µM (inactive) | > 100 µM (inactive) | > 100 µM (inactive) | > 100 µM (inactive) | > 100 µM (inactive) | > 100 µM (inactive) | > 100 µM (inactive) | > 100 µM (inactive) | > 100 µM (inactive) | > 100 µM (inactive) | > 100 µM (inactive) | > 100 µM (inactive) | > 100 µM (inactive) |
| COc1cc2c(c(OC)c1OC)-c1ccc(OC)c(=O)cc1C(NC(=O)CCCCCNc1ccc(N=[N+]=[N-])cc1[N+](=O)[O-])CC2 (configuration not stated) | 1.56 µM (inactive) | 0.299 µM (active) | < 0.01 µM (active) | < 0.01 µM (active) | < 0.01 µM (active) | < 0.01 µM (active) | < 0.01 µM (active) | < 0.01 µM (active) | < 0.01 µM (active) | < 0.01 µM (active) | < 0.01 µM (active) | < 0.01 µM (active) | < 0.01 µM (active) | < 0.01 µM (active) | < 0.01 µM (active) | < 0.01 µM (active) | < 0.01 µM (active) | < 0.01 µM (active) | < 0.01 µM (active) |
| N#Cc1c(N)c2c(c(-c3ccccc3)c1-c1ccccc1)C(=O)N(N)C2=O | > 100 µM (inactive) | 25.2 µM (inactive) | > 100 µM (inactive) | > 100 µM (inactive) | > 100 µM (inactive) | > 100 µM (inactive) | > 100 µM (inactive) | > 100 µM (inactive) | > 100 µM (inactive) | 94 µM (inactive) | > 100 µM (inactive) | > 100 µM (inactive) | > 100 µM (inactive) | 47.1 µM (inactive) | > 100 µM (inactive) | > 100 µM (inactive) | 74.6 µM (inactive) | > 100 µM (inactive) | > 100 µM (inactive) |
